Read-outs that look alike come from different tables or passages of the source.
Columns and labels:
cyclophilin = experiment: Cis-trans isomerase inhibitory activity (chymotrypsin-coupled Suc-AAPF-pNA cleavage, absorbance 390 nm); format: biochemical
Source text: Chymotrypsin cleaves a trans-type alanine-proline peptide bond. When Suc-AAPF-pNA (a peptide substrate) and chymotrypsin are mixed, the trans-type peptide substrate is cleaved and the cis-type peptide substrate remains. The remaining cis-type peptide substrate is converted into a trans form by a cis-trans isomerase and is then cleaved again by chymotrypsin. When the cis-trans isomerase is present, chymotrypsin is able to cleave a larger amount of trans-type peptide substrate within a predetermined period of time, from which the activity of the cis-trans isomerase may be determined. The amount of the cleaved trans-type peptide substrate is measured using absorbance at 390 nm. Cyclophilin has cis-trans isomerase activity, and accelerates the cleavage of trans-type peptide substrate by chymotrypsin. When the stilbene derivatives of the present invention were treated together with cyclophilin, the cleavage of the peptide substrate by chymotrypsin was not observed to accelerate. Thereby, the stilbene derivatives of the invention can be concluded to inhibit the activity of cyclophilin.

hepatitis C virus = experiment: Antiviral activity in HCV replicon cells (Renilla luciferase); format: cell-based
Protocol: The antiviral activity of the stilbene derivatives on hepatitis C virus was measured. The replicon cells that stably replicate the hepatitis C virus genome were attached to a culture plate and cultured in a CO2 incubator at 37° C. for 24 hr. The replicon cells cultured for one day were washed with a PBS solution, treated with the compounds of the present invention, and then cultured for 72 hr. The stilbene derivative-treated replicon cells were washed with a cold PBS solution and added with 20 μL of a cell lysis solution so that the cells were lysed in ice for 20 min. 100 μL of a Renilla luciferase substrate was added thereto, after which the luminescence thereof was measured and thus the amount of the hepatitis C virus genome was estimated. The amount of the hepatitis C virus genome in the stilbene derivative-treated replicon cells according to the present invention relative to the amount of the hepatitis C virus genome in dimethylsulfoxide (DMSO)-treated replicon cells is shown.
Compounds 1 to 155 of Tables 1 to 10 may be grouped as follows based on the antiviral activity (EC50) values: […]

[1] = system: mitochondria obtained from hepatocytes; experiment: Inhibitory activity on calcium-induced mitochondrial swelling (absorbance 520 nm)
Source text: Cyclophilin is a key protein for forming permeability transition pores (PTP) in mitochondria. When permeability transition pores are formed, mitochondria swell, whereby the outer membrane thereof ruptures and thus cell death progresses. Such mitochondrial dysfunction causes many diseases including neurodegenerative diseases, cancer, and the like. Cyclosporine, a known cyclophilin inhibitor, is capable of preventing the formation of permeability transition pores to thus suppress mitochondrial swelling.
The mitochondrial swelling test was performed as follows. Specifically, the hepatocytes were disrupted using a Dounce tissue grinder. The disrupted cells were centrifuged at 700×g for 10 min and the supernatant was transferred into a new tube. The supernatant was centrifuged at 12,000×g for 15 min, thereby obtaining mitochondria.
When the extracted mitochondria were added with calcium, they swelled, which may be observed by measuring the absorbance at 520 nm. The stilbene derivatives are effective at inhibiting mitochondrial swelling due to calcium.
The activity of Compounds 1 to 155 of Tables 1 to 10 on inhibiting mitochondrial swelling may be determined based on IC50 values, and may be grouped as follows: […]

[2] = cyclophilin, chymotrypsin, Suc-AAPF-pNA, read-out: Test Example 1: cis-trans isomerase inhibitory activity (IC50)
[3] = Hepatitis C virus, HCV replicon cells, 72 hr, Renilla luciferase, relative to DMSO, read-out: Test Example 3: antiviral activity (EC50)
[4] = Hepatocyte, calcium-induced swelling of extracted mitochondria, read-out: Test Example 4: inhibiting mitochondrial swelling (IC50)
[5] = HCV replicon cells, 72 hr, Renilla luciferase, relative to DMSO, read-out: Test Example 3: antiviral activity (EC50)
[6] = calcium-induced swelling of extracted mitochondria, read-out: Test Example 4: inhibiting mitochondrial swelling (IC50)

| Structure (SMILES) | IC50 (cyclophilin; [2]) [µM] | EC50 (hepatitis C virus; [3]) [µM] | IC50 [1, 4] [µM] | further results |
| --- | --- | --- | --- | --- |
| CC(C)c1ccccc1C=C(C#N)c1ccc([N+](=O)[O-])cc1 [Compound 23] | 0.2 to 2 | 5 to 50 | 50 to 500 |  |
| N#CC(=Cc1ccccc1CCc1ccc(N)cc1)c1ccc([N+](=O)[O-])cc1 [Compound 53] | 0.02 to 0.2 | 0.5 to 5 | 5 to 50 |  |
| CN(C)CCOc1ccccc1C=C(C#N)c1ccc([N+](=O)[O-])cc1 [Compound 28] | 0.2 to 2 | 5 to 50 | 50 to 500 |  |
| CC(C)(C)Cc1ccc(C=Cc2ccccc2C(=O)OCC2CCCCN2)cc1 (stereo not drawn) [Compound 75] | 0.02 to 0.2 | 0.5 to 5 | 5 to 50 |  |
| CCCCOC(=O)c1ccncc1C=Cc1ccc(CC(C)(C)C)cc1 [Compound 147] |  |  |  | IC50 (cyclophilin; read-out: Test Example 1: cis-trans isomerase inhibitory activity (IC50) group): 0.02 to 0.2 µM; EC50 (hepatitis C virus; Hepatitis C virus, HCV replicon cells, read-out: Test Example 3: antiviral activity (EC50) group): 0.5 to 5 µM; IC50 ([1]; Hepatocyte, read-out: Test Example 4: activity on inhibiting mitochondrial swelling (IC50) group): 5 to 50 µM |
| CCCCOC(=O)c1cc(C)ccc1C=Cc1ccc(CC(C)(C)C)cc1 [Compound 69] | 0.02 to 0.2 | 0.5 to 5 | 5 to 50 |  |
| CC(=Cc1ccccc1C(=O)OCC1CCCCN1)c1ccc(CC(C)(C)C)cc1 (stereo not drawn) [Compound 91] | 0.02 to 0.2 | 0.5 to 5 | 5 to 50 |  |
| CCCCOC(=O)c1ccccc1C=C(I)c1ccc(Cc2ccccc2)cc1 [Compound 123] | 0.02 to 0.2 |  | 5 to 50 | EC50 (hepatitis C virus; Hepatitis C virus, 72 h, read-out: Test Example 3: antiviral activity (EC50)): 0.5 to 5 µM |
| N#CC(=Cc1ccccc1CCc1ccccc1Cl)c1ccc([N+](=O)[O-])cc1 [Compound 46] | 0.02 to 0.2 | 0.5 to 5 | 5 to 50 |  |
| CC(C)(C)Cc1ccc(C(I)=Cc2ccccc2C(=O)OCC2CCCCC2)cc1 [Compound 119] | ≤ 0.02 | < 0.5 | < 5 |  |
| COc1ccccc1C=C(C#N)c1ccc(C)c(C)c1 [Compound 12] | 0.2 to 2 | 5 to 50 | 50 to 500 |  |
| CCCCCOC(=O)c1ccccc1C=C(Cl)c1ccc(CC(C)(C)C)cc1 [Compound 117] | ≤ 0.02 | < 0.5 | < 5 |  |
| CN(C)c1ccccc1C=C(C#N)c1ccc([N+](=O)[O-])cc1 [Compound 7] | 0.2 to 2 | 5 to 50 | 50 to 500 |  |
| N#CC(=Cc1ccccc1CCC1CCCCC1)c1ccc([N+](=O)[O-])cc1 [Compound 39] | ≤ 0.02 | < 0.5 | < 5 |  |
| CCCCOC(=O)c1ccccc1C=Cc1ccc(CC(C)C)cc1 [Compound 131] | ≤ 0.02 | < 0.5 | < 5 |  |
| N#CC(=Cc1ccccc1CCCC1CCCCC1)c1ccc([N+](=O)[O-])cc1 [Compound 40] | ≤ 0.02 | < 0.5 | < 5 |  |
| CCCCOC(=O)c1c(C=C(C)c2ccc(CC(C)(C)C)cc2)ccc(C)c1C [Compound 86] | 0.02 to 0.2 | 0.5 to 5 | 5 to 50 |  |
| CCCCOC(=O)c1ccccc1C=C(C)c1ccc(CC(C)(C)C)cc1 [Compound 82] | 0.02 to 0.2 | 0.5 to 5 | 5 to 50 |  |
| CCCOC(=O)c1ccccc1C=Cc1ccc(CC(C)(C)C)cc1 [Compound 71] | ≤ 0.02 | < 0.5 | < 5 |  |

| Structure (SMILES) | IC50 (cyclophilin; [2]) [µM] | EC50 (hepatitis C virus; [3]) [µM] | IC50 [1, 4] [µM] | further results |
| --- | --- | --- | --- | --- |
| CC(C)(C)Cc1ccc(C(N)=Cc2ccccc2C(=O)OC2CCCCC2)cc1 [Compound 107] | 0.02 to 0.2 | 0.5 to 5 | 5 to 50 |  |
| CC(C)(C)Cc1ccc(C(F)=Cc2ccccc2C(=O)OCc2ccccc2)cc1 [Compound 120] | ≤ 0.02 | < 0.5 | < 5 |  |
| CCc1ccc(C(C#N)=Cc2ccccc2C(=O)O)cc1 [Compound 2] | 0.2 to 2 |  |  | EC50 (hepatitis C virus; [5]): 5 to 50 µM; IC50 [1, 6]: 50 to 500 µM |
| CCc1ccccc1C=C(C#N)c1ccc([N+](=O)[O-])cc1 [Compound 22] | 0.2 to 2 | 5 to 50 | 50 to 500 |  |
| CC(C)(C)Cc1ccccc1C=C(C#N)c1ccc([N+](=O)[O-])cc1 [Compound 35] | 0.02 to 0.2 | 0.5 to 5 | 5 to 50 |  |
| CC(C)(C)Cc1ccc(C(N)=Cc2ccccc2C(=O)OCc2ccccc2)cc1 [Compound 106] | 0.02 to 0.2 | 0.5 to 5 | 5 to 50 |  |
| CCCCOC(=O)c1c(C)cccc1C=C(C)c1ccc(CC(C)(C)C)cc1 [Compound 83] | 0.02 to 0.2 | 0.5 to 5 | 5 to 50 |  |
| CCCCCOC(=O)c1ccccc1C=Cc1ccc(CC(C)(C)C)cc1 [Compound 72] | ≤ 0.02 |  |  | EC50 (hepatitis C virus; [5]): < 0.5 µM; IC50 [1, 6]: < 5 µM |
| COc1ccccc1CCc1ccccc1C=C(C#N)c1ccc([N+](=O)[O-])cc1 [Compound 49] | 0.2 to 2 | 5 to 50 | 50 to 500 |  |
| CCCCOC(=O)c1ccccc1C=C(N)c1ccc(CC2CCCCC2)cc1 [Compound 110] | 0.02 to 0.2 | 0.5 to 5 | 5 to 50 |  |
| CCCCOC(=O)c1cc(C)ccc1C=C(N)c1ccc(CC(C)(C)C)cc1 [Compound 101] | 0.02 to 0.2 | 0.5 to 5 | 5 to 50 |  |
| CC(C)CCOc1cccc(C=C(C#N)c2ccc([N+](=O)[O-])cc2)c1 [Compound 32] | 0.2 to 2 | 5 to 50 | 50 to 500 |  |
| CCCCOC(=O)c1ccccc1C=C(F)c1ccc(CC(C)(C)C)cc1 [Compound 112] | ≤ 0.02 | < 0.5 | < 5 |  |
| CC(C)(C)CCc1ccc(C(C#N)=Cc2ccccc2C(=O)O)cc1 [Compound 57] | ≤ 0.02 | < 0.5 | < 5 |  |
| CC(c1ccc(C(C#N)=Cc2ccccc2C(=O)O)cc1)C(C)(C)C (stereo not drawn) [Compound 56] | 0.02 to 0.2 | 0.5 to 5 | 5 to 50 |  |
| CC(C)Cc1ccccc1C=C(C#N)c1ccc([N+](=O)[O-])cc1 [Compound 34] | 0.2 to 2 | 5 to 50 | 50 to 500 |  |
| CC(C)c1ccc(C(C#N)=Cc2ccccc2C(=O)O)cc1 [Compound 5] | 0.2 to 2 | 5 to 50 | 50 to 500 |  |
| CC(=Cc1ccccc1C(=O)OCc1ccccc1)c1ccc(CC(C)(C)C)cc1 [Compound 92] | 0.02 to 0.2 | 0.5 to 5 | 5 to 50 |  |
| COC(=O)c1ccccc1C=Cc1ccc(CC(C)C)cc1 [Compound 129] | 0.02 to 0.2 | 0.5 to 5 | 5 to 50 |  |

Source: US11286228B2, “Stilbene derivative and method for preparing same” (Ozchela Inc., priority 2016, dated 2022)
